According to patent publication US10494397B2, “Rebaudioside analogs” (PepsiCo, Inc., priority 2016, dated 2019):

How the values were obtained:
Format in all cases: in vivo, human
[1] = system: Tasters; experiment: Sensory evaluation of test material as a sweetener (taster panel, scale of 1 to 10); design: key: not observed or only minimally observed (−); highly observed (+++); conditions: for Sweet Intensity: averaged taster scores, scale 1 to 10 with Reb A 400 ppm = 5 and sucrose 6.5% = 10, noseclips, blinded; for Sweet Quality: based upon temporal profile (sweet onset, linger) and attributes such as syrupy, round, clean; for Bitterness: taster comments and scores converted into symbols
Text: Sample preparation protocol for testing material as a sweetener: Tasters wore noseclips and were blinded to the identity of the test material. Tasters sampled 400 ppm Rebaudioside A and 6.5 Brix sucrose prior to the test material. Reb A 400 ppm was assigned a 5 on the scale of 1 to 10 as shown in FIG. 8 and sucrose (6.5%) was assigned a 10 on the same scale. Tasters were asked to rinse their mouths 5 times with water between tasting each sample. Tasters were then given the test article and asked to rank the test article for sweetness on the noted scale. Tasters were also asked to provide comments about bitterness, linger, flavors, and any other perceptions.
Numerical scores from all tasters were averaged and, taken together with comments regarding sweet quality, bitterness and off-tastes, converted into the symbols “−,” “+,” “++,” and “+++” to indicate whether a given characteristic was not observed or only minimally observed (−) or highly observed (+++). For example, a sample having a “−” in both sweet intensity and bitterness should be understood as a sample having minimal or no sweetness and minimal or no bitter flavor. By contrast, a sample having a “+++” in both sweet intensity and bitterness should be understood as a sample having highly observed sweet intensity and bitterness.
Preparation of Reb A in this experiment: Prepare 400 ppm Reb A in water (pH=7): 40 mg of Rebaudioside A was dissolved with stirring in 100 ml of water at room temperature.
Preparation of Sucrose in this experiment: Prepare 6.5% Sucrose in water (pH=7): weight 6.5 gr of Sucrose and dissolve it in 93.5 gr water (total 100 gr)
• Sweet quality was based upon a temporal profile (sweet onset, linger) and attributes such as syrupy, round, clean.

[2] = system: Tasters; experiment: Sweetness enhancement, Forced Choice Test; design: key: not observed or only minimally observed (−); highly observed (+++); conditions: sweetener (4 Brix sucrose, 4 Brix HFCS or 200 ppm Rebaudioside A) with vs without test compound at a level below 1.5% SEV
Description: Sample preparation protocol: For testing the material as a sweet/flavor modifying ingredient, two samples were prepared: a 4° Brix high-fructose corn syrup (HFCS) control solution and a 4° Brix HFCS solution with a known concentration of test ingredient.
Sample Preparation: 4° Brix HFCS control solution was prepared by adding 50.89 grams of 78.60° Brix HFCS to 1000 g phosphoric acid base which was prepared by adding phosphoric acid dropwise into 1 L of Aquafina Water until pH 3.1 was obtained. pH was measured using a METTLER TOLEDO pH meter.
In the case of a different Brix of HFCS starting syrup, the following formula can be used for the amount of HFCS required to make HFCS control solution. 4° Brix/100*1000 mL/(78.5° Brix/100)=50.96
If any cloudiness persisted, the sample solution was passed through a paper filter. For some low soluble compounds, Branson 2800 Ultra Sonic Bath was used to dissolve the material. If any cloudiness persisted, the sample solution was passed through a paper filter. Solubility was confirmed by shining a laser pointer through the solution. If no diffraction was observed then it was assumed that the material was soluble
12-16 tasters were presented with these two(2) numbered samples: one contained a sweetener such as 4Brix sucrose, 4 Brix high-fructose corn syrup or 200 ppm Rebaudioside A in phosphate buffer. […]

[3] = system: Trained Sensory panelists; experiment: Sucrose Equivalence Value, paired comparison with 1.5% sucrose; conditions: 25 ppm in aqueous phosphoric acid (pH 3.1), room temperature; p<0.0001
Text: (§1) Trained Sensory panelists (n=25, 3 evaluations each) evaluated Reb B Galactoside in aqueous phosphoric acid (pH 3.1) at room temperature. Rebaudioside B galactoside is not currently approved for use in food or beverages in the United States. Therefore, every person who tasted the samples signed an informed consent form provided by PepsiCo Scientific Affairs before tasting samples. Participation in the tests was completely voluntary. Panelists who chose to participate could choose to stop participation at any time. In order for a test ingredient to be considered an enhancer, it must not be considered a sweetener.

[4] = system: Trained Sensory panelists; experiment: Sweet enhancement ranking test (4 samples ranked from least sweet to most sweet)
Text: as §1, with “Panelists were asked” for “In order for a test ingredient”, “rank 4 samples from least sweet to most sweet, with 1=least sweet and 4=most sweet As shown in FIGS. 1-3, Enhancement of Reb A, high-fructose corn syrup and sucrose were observed.” for “be considered an enhancer, it must not be considered a sweetener.”

Structure (SMILES)	Sweet Intensity [1]	Sweet Quality [1]	Bitterness [1]	also measured
C=C1C[C@@]23CC[C@H]4[C@@](C)(CCC[C@@]4(C)C(=O)O[C@@H]4O[C@H](CO)[C@@H](O)[C@H](O)[C@H]4O[C@@H]4O[C@H](CO)[C@@H](O)[C@H](O)[C@H]4O)[C@@H]2CC[C@]1(O[C@@H]1O[C@H](CO)[C@@H](O)[C@H](O[C@@H]2O[C@H](CO)[C@@H](O)[C@H](O)[C@H]2O)[C@H]1O[C@@H]1O[C@@H](C)[C@H](O)[C@@H](O)[C@H]1O)C3 [Compound 7G, Rebaudioside K]	−	−	−	Enhancement [2]: −
C=C1C[C@@]23CC[C@H]4[C@@](C)(CCC[C@@]4(C)C(=O)N[C@@H](C)C(=O)OC)[C@@H]2CC[C@]1(O[C@@H]1O[C@H](CO)[C@@H](O)[C@H](O[C@@H]2O[C@H](CO)[C@@H](O)[C@H](O)[C@H]2O)[C@H]1O[C@@H]1O[C@H](CO)[C@@H](O)[C@H](O)[C@H]1O)C3 [Compound 5B1, Rebaudioside B- L-Alanine Methyl ester]		−	+++	
C=C1C[C@@]23CC[C@H]4[C@@](C)(CCC[C@@]4(C)C(=O)N[C@H](Cc4ccccc4)C(=O)O)[C@@H]2CC[C@]1(O[C@@H]1O[C@H](CO)[C@@H](O)[C@H](O[C@@H]2O[C@H](CO)[C@@H](O)[C@H](O)[C@H]2O)[C@H]1O[C@@H]1O[C@H](CO)[C@@H](O)[C@H](O)[C@H]1O)C3 [Compound 5E2]			−	
C=C1C[C@@]23CC[C@H]4[C@@](C)(CCC[C@@]4(C)C(=O)O[C@@H]4O[C@H](CO)[C@H](O)[C@H](O)[C@H]4O)[C@@H]2CC[C@]1(O[C@@H]1O[C@H](CO)[C@@H](O)[C@H](O[C@@H]2O[C@H](CO)[C@@H](O)[C@H](O)[C@H]2O)[C@H]1O[C@@H]1O[C@H](CO)[C@@H](O)[C@H](O)[C@H]1O)C3 [Compound 7D, Rebaudioside B Galactoside]	+++		−	Sucrose Equivalence Value (sweetness compared with 1.5% sucrose) [3]: < 1.5 % sucrose; Enhancement of sweetness of High-Fructose Corn Syrup (HFCS) ([4]; 25 ppm added to HFCS, FIG. 2): enhances the sweetness; Enhancement of sweetness of Rebaudioside A ([4]; 25 ppm added to Rebaudioside A, FIG. 1): enhances the sweetness; Enhancement of sweetness of sucrose ([4]; 25 ppm added to sucrose, FIG. 3): enhances the sweetness
C=C1C[C@@]23CC[C@H]4[C@@](C)(CCC[C@@]4(C)C(=O)O[C@@H]4O[C@H](CO)[C@@H](O)[C@H](O)[C@@H]4O)[C@@H]2CC[C@]1(O[C@@H]1O[C@H](CO)[C@@H](O)[C@H](O[C@@H]2O[C@H](CO)[C@@H](O)[C@H](O)[C@H]2O)[C@H]1O[C@@H]1O[C@H](CO)[C@@H](O)[C@H](O)[C@H]1O)C3 [Compound 7A, Rebaudioside B Mannoside]	+++			
C=C1C[C@@]23CC[C@H]4[C@@](C)(CCC[C@@]4(C)C(=O)NCC(=O)O)[C@@H]2CC[C@]1(O[C@@H]1O[C@H](CO)[C@@H](O)[C@H](O[C@@H]2O[C@H](CO)[C@@H](O)[C@H](O)[C@H]2O)[C@H]1O[C@@H]1O[C@H](CO)[C@@H](O)[C@H](O)[C@H]1O)C3 [Compound 5A2, Rebaudioside B-Glycine]	+++			Enhancement [2]: +++
C=C1C[C@@]23CC[C@H]4[C@@](C)(CCC[C@@]4(C)C(=O)N[C@@H](C(=O)OC)C(C)C)[C@@H]2CC[C@]1(O[C@@H]1O[C@H](CO)[C@@H](O)[C@H](O[C@@H]2O[C@H](CO)[C@@H](O)[C@H](O)[C@H]2O)[C@H]1O[C@@H]1O[C@H](CO)[C@@H](O)[C@H](O)[C@H]1O)C3 [Compound 5D1, Rebaudioside B- D-Valine Methyl ester]	−	−	+++	
